What all share (assay type): cell-based
The subject of one assay is Streptococcus D. As to the kind of experiment: Minimum inhibition concentration (MIC), Table 4. As to conditions: Germ: Streptococcus D; for MIC: Streptococcus, read-out: Minimum inhibition concentration (MIC). The text has this:
(§1) Minimum inhibition concentration (MIC) in γ/ml

For the next assay, the system named is Streptococcus pyogenes A. As to the kind of experiment: Minimum inhibition concentration (MIC), Table 3. The note with it: Germ: Streptococcus pyogenes A; for MIC: read-out: Minimum inhibition concentration MIC. From the text:
Minimum inhibition concentration MIC in γ/ml
Germ: Streptococcus pyogenes A

A further assay deals with Proteus mirabilis. As to the kind of experiment: Minimum inhibition concentration (MIC), Table 2. Set-up: Minimum inhibition concentration (MIC): unit not given here. As to conditions: Germ: Proteus mirabilis; for MIC: read-out: Minimum inhibition concentration (MIC). From the text:
Minimum inhibition concentration (MIC) in /ml

Assay [1] concerns Staphylococcus aureus 285. As to the kind of experiment: Minimum inhibition concentration (MIC), Table 1. The note with it: for MIC: Staphylococcus aureus, 285, Germ: Staphylococcus aureus 285, read-out: Minimum inhibition concentration (MIC).
Description: as §1
Germ: Staphylococcus aureus 285

Converted amounts (≈) assume the structure as drawn.

`Cc1nnc(SCC2=C(C(=O)O)N3C(=O)C(NC(=O)Cc4ccc(C(=N)N)s4)C3SC2)s1` (centres unmarked) [Example 2, 3-[(5-methyl-1,3,4-thiadiazole-2-yl)-thiomethyl]-7-(5-amidinothienylacetamido)-Δ-3-cephem-4-carboxylic acid]: the MIC in the assay on Streptococcus D is 10 to 50 mg/L (≈ 19.6 to 97.9 µM); in the assay with Streptococcus pyogenes A it was 0.008 to 0.0156 mg/L (≈ 0.0157 to 0.0305 µM); in the assay with Proteus mirabilis it was 25 mg/L (≈ 49 µM); in assay [1], 0.156 to 0.391 mg/L (≈ 0.305 to 0.766 µM).
In the same order, the values of `Cc1nnc(SCC2=C(C(=O)O)N3C(=O)C(NC(=O)Cc4ccc(C5=NCCCN5)cc4)C3SC2)s1` (centres unmarked) [Example 11, 3-[(5-methyl-1,3,4-thiadiazole-2-yl)-thiomethyl]-7-[4-(1,4,5,6-tetrahydro-pyrimide-2-yl)-phenylacetamido]-Δ 3-cephem-4-carboxylic acid] are 10 to 50 mg/L (≈ 18.4 to 91.8 µM), 0.008 to 0.0156 mg/L (≈ 0.0147 to 0.0286 µM), 3.1 to 12.5 mg/L (≈ 5.69 to 22.9 µM) and 0.5 to 1.25 mg/L (≈ 0.918 to 2.29 µM).
For `Cc1nnc(SCC2=C(C(=O)O)N3C(=O)C(NC(=O)Cc4ccc(C5=NCCN5)cc4)C3SC2)s1` (centres unmarked) [Example 12, 3-[(5-methyl-1,3,4-thiadiazole-2-yl)-thiomethyl]-7-[4-(imidazoline-2-yl)-phenylacetamido]-Δ 3-cephem-4-carboxylic acid], in that order: 0.196 to 6.25 mg/L (≈ 0.369 to 11.8 µM), 0.008 to 0.0156 mg/L (≈ 0.0151 to 0.0294 µM), 3.1 to 12.5 mg/L (≈ 5.84 to 23.6 µM) and 0.156 to 0.391 mg/L (≈ 0.294 to 0.737 µM).
For `O=C(Cc1ccc(C2=NCCCN2)cc1)NC1C(=O)N2C(C(=O)O)=C(CSc3nncs3)CSC12` (centres unmarked) [Example 19, 3-[(1,3,4-thiadiazole-2-yl)-thiomethyl]-7-[4-(1,4,5,6-tetrahydropyrimide-2-yl)-phenylacetamido]-Δ 3-cephem-4-carboxylic acid], in that order: 10 to 50 mg/L (≈ 18.8 to 94.2 µM), 0.000391 to 0.0078 mg/L (≈ 0.000737 to 0.0147 µM), 3.1 to 12.5 mg/L (≈ 5.84 to 23.6 µM) and 0.5 to 1.25 mg/L (≈ 0.942 to 2.36 µM).
Turning to `CCCc1nnc(SCC2=C(C(=O)O)N3C(=O)C(NC(=O)Cc4ccc(C(=N)N)cc4)C3SC2)o1` (centres unmarked) [Example 44, 3-[(5-n-propyl-1,3,4-oxadiazole-2-yl)-thiomethyl]-7-(4-amidino-phenylacetamido)-Δ 3-cephem-4-carboxylic acid], the MIC lay within 10 to 50 mg/L (≈ 19.4 to 96.8 µM) with Streptococcus D, 0.000391 to 0.0078 mg/L (≈ 0.000757 to 0.0151 µM) in the assay with Streptococcus pyogenes A, 3.1 to 12.5 mg/L (≈ 6 to 24.2 µM) in the assay with Proteus mirabilis and 0.156 to 0.391 mg/L (≈ 0.302 to 0.757 µM) in assay [1].
For `Cn1nnnc1SCC1=C(C(=O)O)N2C(=O)C(NC(=O)Cc3ccc(C(=N)N)cc3)C2SC1` (centres unmarked) [Example 89, 3-[(1-methyl-1H-tetrazole-5-yl)-thiomethyl]-7-[4-amidino-phenylacetamido]-Δ 3-cephem-4-carboxylic acid], in that order: 10 to 50 mg/L (≈ 20.5 to 102 µM), 0.008 to 0.0156 mg/L (≈ 0.0164 to 0.0319 µM), 3.1 to 12.5 mg/L (≈ 6.35 to 25.6 µM) and 0.156 to 0.391 mg/L (≈ 0.319 to 0.8 µM).
As to `O=C(Cc1ccc(C2=NCCCN2)cc1)NC1C(=O)N2C(C(=O)O)=C(CSc3nnc[nH]3)CSC12` (centres unmarked) [Example 94, 3-[(triazole-2-yl)-thiomethyl]-7-[4-(1,4,5,6-tetrahydro-pyrimide-2-yl)-phenylacetamido]-Δ3-cephem-4-carboxylic acid], the “Minimum inhibition concentration (MIC)” value in the assay on Streptococcus D is 10 to 50 mg/L; with Streptococcus pyogenes A, 0.008 to 0.0156 mg/L; in the assay with Proteus mirabilis it was 25; in assay [1] (Germ: Staphylococcus aureus 285), 1.6 to 2.5 mg/L.
As to `O=C(Cc1ccc(C2=NCCCN2)cc1)NC1C(=O)N2C(C(=O)O)=C(CSc3ccncc3)CSC12` (centres unmarked) [Example 97, 3-(4-pyridyl-thiomethyl)-7-[4-(1,4,5,6-tetrahydropyrimide-2-yl)-phenylacetamido]-Δ3-cephem-4-carboxylic acid], the MIC in the assay on Streptococcus D is 10 to 50 mg/L (≈ 19.1 to 95.5 µM); in the assay on Streptococcus pyogenes A it was 0.000391 to 0.0078 mg/L (≈ 0.000747 to 0.0149 µM); in the assay on Proteus mirabilis, 25 mg/L (≈ 47.7 µM); in assay [1], 1.6 to 2.5 mg/L (≈ 3.06 to 4.77 µM).
On to `O=C(Cc1ccc(C2=NCCCN2)cc1)NC1C(=O)N2C(C(=O)O)=C(CSc3cccc[n+]3[O-])CSC12` (centres unmarked) [Example 107, 3-[(1-oxido-2-pyridyl)-thiomethyl]-7-[4-(1,4,5,6-tetrahydropyrimide-2-yl)-phenylacetamido]-Δ3-cephem-4-carboxylic acid], for which the MIC in the assay on Streptococcus D was 10 to 50 mg/L (≈ 18.5 to 92.7 µM); with Proteus mirabilis, 25 mg/L (≈ 46.3 µM); in assay [1] it was 1.6 to 2.5 mg/L (≈ 2.96 to 4.63 µM).
